What was measured:
dog liver microsomes = assay: Glucuronidation in dog liver microsomes; type: in vitro ADME; details: dog liver microsomes 1 mg/mL, 100 μM, 30 minutes
Method: To confirm the site of glucuronidation of DVS, incubations were performed using dog liver microsomes. These incubations compared the glucuronidation of DVS to venlafaxine. […] Reactions were initiated by the addition of UDPGA (final concentration 1 mM). An additional set of incubations was performed for venlafaxine with UDPGA and an NADPH generating system. […] Reactions were stopped by the addition of 500 μL of acetonitrile and processed as described above. Samples were analyzed by LC/MS.

monoamine oxidase = details: cited from earlier work
histaminergic receptors = details: in vitro; cited from earlier work
adrenergic receptors = details: in vitro; cited from earlier work
[1] = Metabolites of DVS observed by LC/MS in rat plasma, urine and feces; type: in vivo, Sprague Dawley rats; details: P: plasma, U: urine, F: feces
Method: (§1) An Agilent Model 1100 HPLC system (Agilent Technologies, Wilmington, Del.) including an autosampler and diode array UV detector was used for LC/MS analysis. The UV detector was set to monitor 200 to 400 nm. Separations were accomplished on a 5 micron Phenomenex Luna C18(2) column, 150×2 mm (Phenomenex). The column temperature was 25° C. The mobile phases and gradient program were as follows.
The mass spectrometer used for metabolite characterization was a Micromass Q-TOF-2 quadrupole time-of-flight hybrid mass spectrometer (Micromass, Inc., Beverly, Mass.). The mass spectrometer was equipped with an electrospray ionization (ESI) interface and operated in the positive ionization mode.

[2] = Metabolites of DVS observed by LC/MS in dog plasma, urine and feces; type: in vivo, beagle dogs; details: P: plasma, U: urine, F: feces
Method: as §1, with “For selected LC/MS analyses, radiochromatograms” for “The mobile phases and gradient program”, “acquired using a β-RAM model 3 radioactivity flow detector (IN/US Systems Inc., Tampa, Fla.) equipped with a solid scintillation flow cell.” for “as follows.”
The mass spectrometers used for metabolite characterization were a Micromass Q-TOF-2 quadrupole time-of-flight hybrid mass spectrometer (Micromass, Inc., Beverly, Mass.) and a Finnigan LCQ Deca ion trap mass spectrometer (ThermoFinnigan, San Jose, Calif.). The mass spectrometer was equipped with an electrospray ionization (ESI) interface and operated in the positive ionization mode.

[3] = tested on: Reserpine-Induce Hypothermia; details: cited from earlier work
D2 = D2 (Homo sapiens, UniProt P14416); details: cited from earlier work
s Cholinergic = details: cited from earlier work
Adrenergic a = details: cited from earlier work
Histamine Hi = Histamine Hi (Homo sapiens, UniProt P35367); details: cited from earlier work
Opiate = details: cited from earlier work

Histamine Hi, sequence (P35367 whole entry): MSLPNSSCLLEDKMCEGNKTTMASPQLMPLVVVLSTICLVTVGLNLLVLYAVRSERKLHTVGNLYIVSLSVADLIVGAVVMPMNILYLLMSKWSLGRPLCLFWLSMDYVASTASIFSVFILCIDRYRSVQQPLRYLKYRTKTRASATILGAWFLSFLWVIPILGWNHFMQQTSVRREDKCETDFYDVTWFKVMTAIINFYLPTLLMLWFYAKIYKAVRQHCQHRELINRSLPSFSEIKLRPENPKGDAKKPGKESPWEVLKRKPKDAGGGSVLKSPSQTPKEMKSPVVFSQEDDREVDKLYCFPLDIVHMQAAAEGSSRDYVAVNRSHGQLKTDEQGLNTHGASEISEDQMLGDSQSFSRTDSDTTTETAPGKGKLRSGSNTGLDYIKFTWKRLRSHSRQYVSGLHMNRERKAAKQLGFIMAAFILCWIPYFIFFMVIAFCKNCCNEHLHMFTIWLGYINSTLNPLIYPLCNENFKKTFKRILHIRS
D2, sequence (P14416 whole entry): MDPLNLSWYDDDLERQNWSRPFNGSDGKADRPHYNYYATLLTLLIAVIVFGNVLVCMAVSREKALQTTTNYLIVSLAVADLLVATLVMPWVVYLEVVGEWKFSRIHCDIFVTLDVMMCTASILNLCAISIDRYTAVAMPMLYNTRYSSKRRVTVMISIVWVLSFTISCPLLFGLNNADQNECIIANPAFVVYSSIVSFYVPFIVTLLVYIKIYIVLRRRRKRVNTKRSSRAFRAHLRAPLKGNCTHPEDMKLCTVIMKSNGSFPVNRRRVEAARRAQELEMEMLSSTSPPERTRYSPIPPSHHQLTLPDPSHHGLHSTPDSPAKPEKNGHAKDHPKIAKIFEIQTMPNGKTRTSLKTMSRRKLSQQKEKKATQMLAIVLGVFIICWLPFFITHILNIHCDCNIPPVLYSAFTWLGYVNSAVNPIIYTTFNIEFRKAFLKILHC

SMILES	glucuronidation (dog liver microsomes; in the presence of both UDPGA and NADPH)	glucuronidation (dog liver microsomes; in the presence of only UDPGA)	inhibitory activity on monoamine oxidase (monoamine oxidase)	affinity for histaminergic receptors (histaminergic receptors)	affinity for adrenergic receptors (adrenergic receptors)	Matrix (metabolite observed by LC/MS) [1]	Matrix (metabolite observed by LC/MS) [2]	Reversal of Reserpine-Induce Hypothermia (minimum effect; mg&g i.p.) [3] [mg&g]	Affinity for Various Neuroreceptors (% inhibition at 1 uM): D2 (D2) [%]	Affinity for Various Neuroreceptors (% inhibition at 1 uM): s Cholinergic (s Cholinergic) [%]	Affinity for Various Neuroreceptors (% inhibition at 1 uM): Adrenergic a (Adrenergic a) [%]	Affinity for Various Neuroreceptors (% inhibition at 1 uM): Histamine Hi (Histamine Hi) [%]	Affinity for Various Neuroreceptors (% inhibition at 1 uM): Opiate (Opiate) [%]
COc1ccc(C(CN(C)C)C2(O)CCCCC2)cc1 (stereo not shown) [venlafaxine, 1-[2-(dimethylamino)-1-(4-methoxyphenyl)ethyl]cyclohexanol]	observed	not	no inhibitory activity	virtually no affinity	virtually no affinity								
CN(C)CC(c1ccc(O)cc1)C1(O)CCCCC1 (stereo not shown) [O-DESMETHYLVENLAFAXINE, 1-[2-(dimethylamino)-1-(4-phenol)ethyl]-cyclohexanol]						P, U, F	P, U, F	3	6	7	0	0	7

Reference: patent US20080261895A1 (Wyeth, priority 2006, published 2008)
